Measurements published in patent publication US11767341B2, “Lincosamide antibiotics and uses thereof” (President and Fellows of Harvard College, priority 2017, dated 2023).
Converted amounts (≈) assume the structure as drawn.

system: S. aureus MP-549 msr(a) USA 300; assay: MIC determination; assay type: cell-based; settings: Staphylococcus aureus, USA300, S. aureus MP-549 msr(a) USA 300

| SMILES | MIC [µg/mL] |
| --- | --- |
| CSC1O[C@H]([C@H](NC(=O)[C@H]2NC[C@@H]3C[C@@H](c4ccc(C)cc4)CCO[C@H]32)[C@H](C)Cl)C(O)[C@@H](O)[C@H]1O (stereo partly shown) [FSA-512079b] | 0.5 (≈ 0.945 µM) |
| CSC1O[C@H]([C@H](NC(=O)[C@H]2NC[C@@H]3C[C@@H](C4CCN(C)CC4)CCO[C@H]32)[C@H](C)Cl)C(O)[C@@H](O)[C@H]1O (stereo partly shown) [FSA-512012] | 8 (≈ 14.9 µM) |

system: K. pneumoniae ATCC 10031; assay: MIC determination; assay type: cell-based; settings: Klebsiella pneumoniae, ATCC10031

| SMILES | MIC [µg/mL] |
| --- | --- |
| CSC1O[C@H]([C@H](NC(=O)[C@H]2NC[C@@H]3CC(c4cccc5cnccc45)=CCO[C@H]32)[C@H](C)Cl)C(O)[C@@H](O)[C@H]1O (stereo partly shown) [FSA-510006] | > 64 |
| CSC1O[C@H]([C@H](NC(=O)[C@H]2NC[C@@H]3C[C@@H](c4ccc(C)cc4)CCO[C@H]32)[C@H](C)Cl)C(O)[C@@H](O)[C@H]1O (stereo partly shown) [FSA-512079b] | 16 (≈ 30.2 µM) |

system: E. coli ATCC 25922; assay: MIC determination; assay type: cell-based; settings: Escherichia coli, ATCC25922

| SMILES | MIC [µg/mL] |
| --- | --- |
| CSC1O[C@H]([C@H](NC(=O)[C@H]2NC[C@@H]3CC(c4cccc5cnccc45)=CCO[C@H]32)[C@H](C)Cl)C(O)[C@@H](O)[C@H]1O (stereo partly shown) [FSA-510006] | > 64 |
| CSC1O[C@H]([C@H](NC(=O)[C@H]2NC[C@@H]3C[C@@H](C4CCN(C)CC4)CCO[C@H]32)[C@H](C)Cl)C(O)[C@@H](O)[C@H]1O (stereo partly shown) [FSA-512012] | > 256 |

same assay, conditions: Escherichia coli, ATCC25922, E. coli ATCC 25922; read-out: MIC

| SMILES | MIC [µg/mL] |
| --- | --- |
| CSC1O[C@H]([C@H](NC(=O)[C@H]2NC[C@@H]3C[C@@H](c4ccc(C)cc4)CCO[C@H]32)[C@H](C)Cl)C(O)[C@@H](O)[C@H]1O (stereo partly shown) [FSA-512079b] | > 128 |

system: S. aureus ATCC 29213; assay: MIC determination; assay type: cell-based; settings: Staphylococcus aureus, ATCC29213

| SMILES | MIC [µg/mL] |
| --- | --- |
| CSC1O[C@H]([C@H](NC(=O)[C@H]2NC[C@@H]3C[C@@H](c4ccc(C)cc4)CCO[C@H]32)[C@H](C)Cl)C(O)[C@@H](O)[C@H]1O (stereo partly shown) [FSA-512079b] | 0.5 (≈ 0.945 µM) |

same assay, conditions: Staphylococcus aureus, ATCC29213, S. aureus ATCC 29213; read-out: MIC

| SMILES | MIC [µg/mL] |
| --- | --- |
| CSC1O[C@H]([C@H](NC(=O)[C@H]2NC[C@@H]3CC(c4cccc5cnccc45)=CCO[C@H]32)[C@H](C)Cl)C(O)[C@@H](O)[C@H]1O (stereo partly shown) [FSA-510006] | 8 (≈ 14.2 µM) |
| CSC1O[C@H]([C@H](NC(=O)[C@H]2NC[C@@H]3C[C@@H](C4CCN(C)CC4)CCO[C@H]32)[C@H](C)Cl)C(O)[C@@H](O)[C@H]1O (stereo partly shown) [FSA-512012] | 8 (≈ 14.9 µM) |

system: S. pneumoniae ATCC 49619; assay: MIC determination; assay type: cell-based; settings: Streptococcus pneumoniae, ATCC49619; S. pneumoniae ATCC 49619; read-out: MIC

| SMILES | MIC [µg/mL] |
| --- | --- |
| CSC1O[C@H]([C@H](NC(=O)[C@H]2NC[C@@H]3CC(c4cccc5cnccc45)=CCO[C@H]32)[C@H](C)Cl)C(O)[C@@H](O)[C@H]1O (stereo partly shown) [FSA-510006] | 1 (≈ 1.77 µM) |
| CSC1O[C@H]([C@H](NC(=O)[C@H]2NC[C@@H]3C[C@@H](C4CCN(C)CC4)CCO[C@H]32)[C@H](C)Cl)C(O)[C@@H](O)[C@H]1O (stereo partly shown) [FSA-512012] | 1 (≈ 1.87 µM) |

system: E. coli MP-74 LptD mutant; assay: MIC determination; assay type: cell-based; settings: Escherichia coli

| SMILES | MIC [µg/mL] |
| --- | --- |
| CSC1O[C@H]([C@H](NC(=O)[C@H]2NC[C@@H]3CC(c4cccc5cnccc45)=CCO[C@H]32)[C@H](C)Cl)C(O)[C@@H](O)[C@H]1O (stereo partly shown) [FSA-510006] | 64 (≈ 113 µM) |
| CSC1O[C@H]([C@H](NC(=O)[C@H]2NC[C@@H]3C[C@@H](c4ccc(C)cc4)CCO[C@H]32)[C@H](C)Cl)C(O)[C@@H](O)[C@H]1O (stereo partly shown) [FSA-512079b] | 16 (≈ 30.2 µM) |
| CSC1O[C@H]([C@H](NC(=O)[C@H]2NC[C@@H]3C[C@@H](C4CCN(C)CC4)CCO[C@H]32)[C@H](C)Cl)C(O)[C@@H](O)[C@H]1O (stereo partly shown) [FSA-512012] | > 256 |

system: H. influenzae ATCC 49247; assay: MIC determination; assay type: cell-based; settings: Haemophilus influenzae, ATCC49247

| SMILES | MIC [µg/mL] |
| --- | --- |
| CSC1O[C@H]([C@H](NC(=O)[C@H]2NC[C@@H]3CC(c4cccc5cnccc45)=CCO[C@H]32)[C@H](C)Cl)C(O)[C@@H](O)[C@H]1O (stereo partly shown) [FSA-510006] | > 64 |
| CSC1O[C@H]([C@H](NC(=O)[C@H]2NC[C@@H]3C[C@@H](c4ccc(C)cc4)CCO[C@H]32)[C@H](C)Cl)C(O)[C@@H](O)[C@H]1O (stereo partly shown) [FSA-512079b] | 16 (≈ 30.2 µM) |
| CSC1O[C@H]([C@H](NC(=O)[C@H]2NC[C@@H]3C[C@@H](C4CCN(C)CC4)CCO[C@H]32)[C@H](C)Cl)C(O)[C@@H](O)[C@H]1O (stereo partly shown) [FSA-512012] | > 256 |

system: E. faecalis ATCC 29212; assay: MIC determination; assay type: cell-based; settings: Enterococcus faecalis, ATCC29212, read-out: MIC

| SMILES | MIC [µg/mL] |
| --- | --- |
| CSC1O[C@H]([C@H](NC(=O)[C@H]2NC[C@@H]3CC(c4cccc5cnccc45)=CCO[C@H]32)[C@H](C)Cl)C(O)[C@@H](O)[C@H]1O (stereo partly shown) [FSA-510006] | 16 (≈ 28.4 µM) |
| CSC1O[C@H]([C@H](NC(=O)[C@H]2NC[C@@H]3C[C@@H](c4ccc(C)cc4)CCO[C@H]32)[C@H](C)Cl)C(O)[C@@H](O)[C@H]1O (stereo partly shown) [FSA-512079b] | 1 (≈ 1.89 µM) |
| CSC1O[C@H]([C@H](NC(=O)[C@H]2NC[C@@H]3C[C@@H](C4CCN(C)CC4)CCO[C@H]32)[C@H](C)Cl)C(O)[C@@H](O)[C@H]1O (stereo partly shown) [FSA-512012] | 64 (≈ 119 µM) |

system: S. pyogenes ATCC 19615; assay: MIC determination; assay type: cell-based; settings: Streptococcus pyogenes, ATCC19615; S. pyogenes ATCC 19615; read-out: MIC

| SMILES | MIC [µg/mL] |
| --- | --- |
| CSC1O[C@H]([C@H](NC(=O)[C@H]2NC[C@@H]3CC(c4cccc5cnccc45)=CCO[C@H]32)[C@H](C)Cl)C(O)[C@@H](O)[C@H]1O (stereo partly shown) [FSA-510006] | 0.5 (≈ 0.886 µM) |
| CSC1O[C@H]([C@H](NC(=O)[C@H]2NC[C@@H]3C[C@@H](c4ccc(C)cc4)CCO[C@H]32)[C@H](C)Cl)C(O)[C@@H](O)[C@H]1O (stereo partly shown) [FSA-512079b] | ≤ 0.12 |
| CSC1O[C@H]([C@H](NC(=O)[C@H]2NC[C@@H]3C[C@@H](C4CCN(C)CC4)CCO[C@H]32)[C@H](C)Cl)C(O)[C@@H](O)[C@H]1O (stereo partly shown) [FSA-512012] | 4 (≈ 7.46 µM) |

system: S. aureus BAA 977 iErmA; assay: MIC determination; assay type: cell-based; settings: Staphylococcus aureus, BAA977

| SMILES | MIC [µg/mL] |
| --- | --- |
| CSC1O[C@H]([C@H](NC(=O)[C@H]2NC[C@@H]3CC(c4cccc5cnccc45)=CCO[C@H]32)[C@H](C)Cl)C(O)[C@@H](O)[C@H]1O (stereo partly shown) [FSA-510006] | 16 (≈ 28.4 µM) |

system: E. coli MP-9 ΔTolC; assay: MIC determination; assay type: cell-based; settings: Escherichia coli

| SMILES | MIC [µg/mL] |
| --- | --- |
| CSC1O[C@H]([C@H](NC(=O)[C@H]2NC[C@@H]3CC(c4cccc5cnccc45)=CCO[C@H]32)[C@H](C)Cl)C(O)[C@@H](O)[C@H]1O (stereo partly shown) [FSA-510006] | > 64 |
| CSC1O[C@H]([C@H](NC(=O)[C@H]2NC[C@@H]3C[C@@H](c4ccc(C)cc4)CCO[C@H]32)[C@H](C)Cl)C(O)[C@@H](O)[C@H]1O (stereo partly shown) [FSA-512079b] | 8 (≈ 15.1 µM) |
| CSC1O[C@H]([C@H](NC(=O)[C@H]2NC[C@@H]3C[C@@H](C4CCN(C)CC4)CCO[C@H]32)[C@H](C)Cl)C(O)[C@@H](O)[C@H]1O (stereo partly shown) [FSA-512012] | > 256 |
